Experimental data taken from PubChem BioAssay AID1919010 (Molecular Pharmacology Branch, DTP, NCI, 2023).

System: Hs578T complex spheroid growth, percent test/control
Assay: Anticancer human tumor Hs578T cell line growth inhibition [AhR];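 further: luminescent viability signal as a proxy for spheroid growth; spheroids exposed to agents for one week after three days of growth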
Conditions: for IC50: curve of first compound; for viability, T/C: stronger effect = lower value
How it was run: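 Agents were dosed in half-log steps down from roughly clinical Cmax, or from 10 microM where Cmax was unknown, alone and with AhR antagonists. Read-out: percent test/control growth of tumor spheroids containing HUVEC and MSC stromal cells.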

[1] = second compound 0.1 µM, first compound 0.00316 µM
[2] = second compound 0.1 µM, first compound 0.01 µM
[3] = second compound 0.1 µM, first compound 0.0316 µM
[4] = second compound 0.1 µM, first compound 0.1 µM
[5] = second compound 0.316 µM, first compound 0.00316 µM
[6] = second compound 0.316 µM, first compound 0.01 µM
[7] = second compound 0.316 µM, first compound 0.0316 µM
[8] = second compound 0.316 µM, first compound 0.1 µM
[9] = second compound 1 µM, first compound 0.00316 µM
[10] = second compound 1 µM, first compound 0.01 µM
[11] = second compound 1 µM, first compound 0.0316 µM
[12] = second compound 1 µM, first compound 0.1 µM
[13] = second compound 3.16 µM, first compound 0.00316 µM
[14] = second compound 3.16 µM, first compound 0.01 µM
[15] = second compound 3.16 µM, first compound 0.0316 µM
[16] = second compound 3.16 µM, first compound 0.1 µM
[17] = second compound 10 µM, first compound 0.00316 µM
[18] = second compound 10 µM, first compound 0.01 µM
[19] = second compound 10 µM, first compound 0.0316 µM
[20] = second compound 10 µM, first compound 0.1 µM
[21] = second compound 0.1 µM, first compound 0.316 µM
[22] = second compound 0.1 µM, first compound 1 µM
[23] = second compound 0.1 µM, first compound 3.16 µM
[24] = second compound 0.1 µM, first compound 10 µM
[25] = second compound 0.316 µM, first compound 0.316 µM
[26] = second compound 0.316 µM, first compound 1 µM
[27] = second compound 0.316 µM, first compound 3.16 µM
[28] = second compound 0.316 µM, first compound 10 µM
[29] = second compound 1 µM, first compound 0.316 µM
[30] = second compound 1 µM, first compound 1 µM
[31] = second compound 1 µM, first compound 3.16 µM
[32] = second compound 1 µM, first compound 10 µM
[33] = second compound 3.16 µM, first compound 0.316 µM
[34] = second compound 3.16 µM, first compound 1 µM
[35] = second compound 3.16 µM, first compound 3.16 µM
[36] = second compound 3.16 µM, first compound 10 µM
[37] = second compound 10 µM, first compound 0.316 µM
[38] = second compound 10 µM, first compound 1 µM
[39] = second compound 10 µM, first compound 3.16 µM
[40] = second compound 10 µM, first compound 10 µM

SMILES	IC50 (second compound 0.1 µM)	IC50 (second compound 0.316 µM)	IC50 (second compound 1 µM)	IC50 (second compound 3.16 µM)	IC50 (second compound 10 µM)	viability, T/C [3]	viability, T/C [4]	viability, T/C [7]	viability, T/C [8]	viability, T/C [11]	viability, T/C [12]	viability, T/C [15]	viability, T/C [16]	viability, T/C [19]	viability, T/C [20]	viability, T/C [21]	viability, T/C [22]	viability, T/C [25]	viability, T/C [26]	viability, T/C [29]	also measured
CC[C@@]1(O)C(=O)OCc2c1cc1n(c2=O)Cc2cc3c(CN(C)C)c(O)ccc3nc2-1 + Cc1ccccc1N=Nc1ccc(NC(=O)c2ccnn2C)c(C)c1	> 100 nM	> 100 nM	> 100 nM	> 100 nM	76.5 nM	69.1%	69.2%	78.3%	68.3%	71.7%	61.7%	63.4%	55.9%	50.4%	50.1%						viability, T/C (second compound 0.1 µM, first compound 0.000316 µM): 101%; viability, T/C (second compound 0.1 µM, first compound 0.001 µM): 106%; viability, T/C [1]: 89.4%; viability, T/C [2]: 73.3%; viability, T/C (second compound 0.316 µM, first compound 0.000316 µM): 108%; viability, T/C (second compound 0.316 µM, first compound 0.001 µM): 104%; viability, T/C [5]: 89.9%; viability, T/C [6]: 80.7%; viability, T/C (second compound 1 µM, first compound 0.000316 µM): 99.2%; viability, T/C (second compound 1 µM, first compound 0.001 µM): 110%; viability, T/C [9]: 96%; viability, T/C [10]: 79.8%; viability, T/C (second compound 3.16 µM, first compound 0.000316 µM): 94.5%; viability, T/C (second compound 3.16 µM, first compound 0.001 µM): 90.8%; viability, T/C [13]: 83.1%; viability, T/C [14]: 66.8%; viability, T/C (second compound 10 µM, first compound 0.000316 µM): 65.3%; viability, T/C (second compound 10 µM, first compound 0.001 µM): 61.3%; viability, T/C [17]: 65.6%; viability, T/C [18]: 59.6%
COc1cc(C2c3cc4c(cc3C(OC3OC5COC(C)OC5C(O)C3O)C3COC(=O)C23)OCO4)cc(OC)c1O (stereo not given) + Cc1ccccc1N=Nc1ccc(NC(=O)c2ccnn2C)c(C)c1	> 10000 nM	> 10000 nM	> 10000 nM	8990 nM	5160 nM	97.1%	96.1%	101%	103%	92.6%	86.4%	81.2%	78.8%	68.6%	68.1%	77.3%	72.8%	88.9%	83.1%	77.3%	viability, T/C [23]: 79.5%; viability, T/C [24]: 57.9%; viability, T/C [27]: 72.2%; viability, T/C [28]: 68.9%; viability, T/C [30]: 73.9%; viability, T/C [31]: 66.3%; viability, T/C [32]: 63.1%; viability, T/C [33]: 76.9%; viability, T/C [34]: 73.7%; viability, T/C [35]: 68.5%; viability, T/C [36]: 48%; viability, T/C [37]: 67.6%; viability, T/C [38]: 57.6%; viability, T/C [39]: 54.4%; viability, T/C [40]: 44.9%
COc1cccc2c1C(=O)c1c(O)c3c(c(O)c1C2=O)CC(O)(C(=O)CO)CC3OC1CC(N)C(O)C(C)O1 (stereo not given) + Cc1ccccc1N=Nc1ccc(NC(=O)c2ccnn2C)c(C)c1	240 nM	279 nM	373 nM	353 nM	368 nM	89.8%	72.5%	67.9%	64.2%	80.4%	75%	68.7%	63.2%	65.2%	64.4%	44.7%	10%	48.3%	9.72%	56.3%	viability, T/C [23]: 2.16%; viability, T/C [24]: 2.24%; viability, T/C [27]: 1.94%; viability, T/C [28]: 2.15%; viability, T/C [30]: 14.4%; viability, T/C [31]: 1.79%; viability, T/C [32]: 2.15%; viability, T/C [33]: 54.5%; viability, T/C [34]: 10.2%; viability, T/C [35]: 1.55%; viability, T/C [36]: 1.85%; viability, T/C [37]: 56.6%; viability, T/C [38]: 6.88%; viability, T/C [39]: 1.17%; viability, T/C [40]: 1.93%
Nc1ncn(C2CC(O)C(CO)O2)c(=O)n1 (stereo not given) + Cc1ccccc1N=Nc1ccc(NC(=O)c2ccnn2C)c(C)c1	> 1000 nM	> 1000 nM	> 1000 nM	> 1000 nM	> 1000 nM	97.2%	98%	96.8%	98.9%	106%	91.8%	85.9%	90.8%	60.9%	66%	99.2%	90%	85.8%	81.6%	86.2%	viability, T/C [1]: 103%; viability, T/C [2]: 109%; viability, T/C [5]: 97.5%; viability, T/C [6]: 97.2%; viability, T/C [9]: 95.4%; viability, T/C [10]: 92%; viability, T/C [30]: 84.9%; viability, T/C [13]: 83.3%; viability, T/C [14]: 87.2%; viability, T/C [33]: 78.5%; viability, T/C [34]: 79.8%; viability, T/C [17]: 63%; viability, T/C [18]: 70.5%; viability, T/C [37]: 63.4%; viability, T/C [38]: 68%
